The values that follow come from US11518760B2 (Liverpool School of Tropical Medicine, priority 2017, dated 2022).

Each structure is given as a SMILES string.

The subject of test [1] is Wolbachia in adult male Onchocerca ochengi. The experiment in a line: Adult Onchocerca ochengi mouse model, Wolbachia wsp qPCR. The class given is in vivo. The note with it: CB.17(BALB/c) SCID mice implanted with male O. ochengi, oral. The source says:
Viable male Onchocerca ochengi were aseptically isolated from naturally parasitized cattle. Between 10-11 male Onchocerca were surgically implanted into the peritoneal cavity of CB.17(BALB/c) SCID mice under anaesthesia. […] 38 Days after O. ochengi surgical implantation, mice were necropsied to recover the live worms. Genomic DNA was extracted from individual adult worms (10/group) and quantification of the O. ochengi-specific Wolbachia surface protein (wsp) performed by quantitative PCR. Data in Table 6 is expressed as a reduction in Wolbachia load in comparison to the vehicle control group.
On the technique in general: In qPCR the cycle at which signal appears reflects the starting amount.

Test [2] relates to Wolbachia of the target parasite, Brugia malayi. The experiment in a line: In vitro microfilariae (Mf) Brugia malayi screen, wsp/gst qPCR. The format is cell-based. The note with it: B. malayi Mf, 6 days. The method, then: An in vitro microfilariae (Mf) assay was used to screen against Wolbachia of the target parasite, Brugia malayi. The Mf were obtained by peritoneal lavage of gerbils (Meriones unguiculatus) harbouring a patent infection of Brugia malayi as described previously (Griffiths et al., 2010, Lab Animal).
Mf were purified using a PD-10 desalting column (Fisher) followed by centrifugation (1200 rpm for 5 minutes at room temperature) then re-suspended in filter-sterilised culture medium consisting of RPMI supplemented with heat-inactivated Foetal Calf Serum (HI-FCS), 1% Penicillin-Streptomycin and 1% Amphotericin B.
After determining the concentration of Mf, the stock solution was diluted in culture medium to ensure a final concentration of 8000 Mf/well of a 96 well plate (100 μl per well). Compounds to be tested (10 mM stock in 100% DMSO) were diluted to appropriate working concentrations in culture medium and 100 μl was added to the appropriate wells of the 96 well plate containing the Mf. Five replicates were used for each compound and each plate contained doxycycline (5 μM) and vehicle (DMSO) controls. The plates were incubated at 37° C., 5% CO2, for 6 days.
On day 6, a visual assessment of motility was performed and wells scored from 0 to 4 (where 0=no movement and 4=highly motile) in order to assess whether there were any direct effects against the Mf. To perform the anti-Wolbachia readout, DNA was extracted from each individual well using the QIAmp DNA Mini Kit (Qiagen) ‘DNA Purification from Tissues’ protocol.
The number of Wolbachia present in Mf was assessed by quantification of the Wolbachia surface protein (wsp) gene copy number and normalised to the nematode glutathione S-transferase (gst) gene by qPCR based on methods described by McGarry et al., 2004, Mol Biochem Parasitol. DNA samples were amplified in duplicate in the following 20 μl reactions containing 1× QuantiTect SYBR Green PCR master mix (Qiagen): for wsp, 0.3 μM each of forward ([…]) and reverse ([…]) primer, 3 mM MgCl2 and 2 μl of DNA. For gst, 0.35 μM of forward ([…]) and reverse primer (ATCACGGACGCCTTCACAG), 3.5 mM MgCl2 and 1 μl of DNA. qPCR was performed using the Bio-Rad CFX384 C1000 thermal cycler (Bio-Rad laboratories LTD) with a denaturation step of 95° C. for 15 min then 40 cycles at 95° C. for 15 s, 57° C. (gst) or 60° C. (wsp) for 30 s, and 72° C. for 30 s. Quantification was determined by Bio-Rad CFX manager software by comparing the DNA samples to that of a standard curve generated from serial dilution of plasmid DNA of the appropriate gene. Data in Table 3 are expressed as a reduction in Wolbachia load in comparison to the vehicle control group and normalized by positive control (doxycycline at 5 μM).

The test system of test [3] is Wolbachia in Brugia malayi larvae. The experiment in a line: Larval Brugia malayi mouse model, Wolbachia wsp qPCR. The class given is in vivo. The note with it: BALB/c IL4Rα−/− mice, oral, larvae recovered 14 days post-infection. An excerpt:
In a larval Brugia malayi mouse model treatment groups (BALB/c IL4Rα−/− mice, 6-8 week old) received compounds by oral delivery for 7 to 14 days commencing on the day of intraperitoneal infection with Brugia malayi third-stage larvae. At 14 days post-infection, larvae were recovered from the peritoneal cavity, counted, and length measured. Genomic DNA was extracted from individual worms (10/group) and quantification of the Wolbachia surface protein (wBm-wsp) gene copy numbers performed by quantitative PCR.
Treatment dosage unit is mg/kg (MK) and duration stated in days (d). Abbreviations: DOX (doxycycline), bid (twice daily), Ms (mesylate). Data in Table 4 are expressed as a reduction in Wolbachia load in comparison to the vehicle control group.

Setting [4] is: dose/duration stands in the drawing (not visible).

`C[C@H]1COCCN1c1nc(NCc2cccnc2C(F)(F)F)c2cccnc2n1` [drawing 702]: the “% Wolbachia reduction cf median Vehicle” value in test [1] (setting [4]) came out at 96.2%.

Take `C[C@H]1c2cccc(O)c2C(=O)C2=C(O)[C@]3(O)C(=O)C(C(N)=O)=C(O)[C@@H](N(C)C)[C@@H]3[C@@H](O)[C@@H]21` [DOX, doxycycline, reference compound]: the “% Reduction level normalised to DOX (5 μm)” value came out at 92.9% in test [2] (500 nM) and 100.0% in test [2] (5 μM). Moreover, the “% Wolbachia reduction cf. DMSO” value is listed as 80.0% in test [2] (500 nM) and 89.6% in test [2] (5 μM). Also, the “% Wolbachia reduction cf median Vehicle” value came to 98.7% in test [1] (25 MK bid + 28 d) and 99.05% in test [3] (25 MK bid + 14 d).

For the compound `CC1COCCN1c1nc(NCc2cccnc2C(F)(F)F)c2cccnc2n1` (stereo not shown) [drawing 689], the “% Wolbachia reduction cf median Vehicle” value in test [3] (setting [4]) is 99.91%.

Turning to `CC(C)N(C)c1nc(NCc2cccnc2C(F)(F)F)c2cccnc2n1` [drawing 688], the “% Wolbachia reduction cf median Vehicle” value in test [3] (setting [4]) was determined as 99.99%.

For the compound `FC1(F)CCN(c2nc(NCc3cccnc3C(F)(F)F)c3cccnc3n2)CC1` [drawing 690], in test [3] (setting [4]), the “% Wolbachia reduction cf median Vehicle” value was 99.84%.
